Measured values as given in paper PMC9995496, “A screen for MeCP2-TBL1 interaction inhibitors using a luminescence-based assay” (Scientific Reports, 2023).
Structures can show the parent of a compound that is named as a salt. Where two headings read alike, the source gives them in different places. Square brackets hold non-standard residues; d marks the D form. Peptide text beside a SMILES is read from it. * marks the point of attachment. ξ: configuration not given here. Nva = CCC[C@H](N)C(=O)O; Cbz = O=C(OCc1ccccc1)*; ξL = CC(C)CC(N)C(=O)O; ξM = CSCCC(N)C(=O)O; CH2F = FC*

Tested on: PRKACA-PRKAR2A interaction (SmBiT-PRKACA / LgBiT-PRKAR2A), protein kinase A
Parameters: NanoLuc complementation counter-screen in cell extract, PRKACA with PRKAR2A, loss of luminescence, detects NanoLuc interference
Settings: 0.5 h, 20 µM, inhibitor
[1] = counter-screen for NanoLuc interference

CCOc1cc2ncc(C#N)c(Nc3ccc(F)c(Cl)c3)c2cc1NC(=O)/C=C/CN(C)C [UM0141415:01, Pelitinib (EKB-569)]
Inh (PKA) [1]: 20%

C=CC(=O)Nc1cc2c(Nc3ccc(F)c(Cl)c3)ncnc2cc1OCCCN1CCOCC1 [UM0141416:01, Canertinib (CI-1033)]
Inh (PKA) [1]: 5.945%

Oc1nc(-c2ccc(C(F)(F)F)cc2)nc2c1CSCC2 [UM0141417:01, XAV-939]
Inh (PKA) [1]: 15.47%

COc1cc2c(Oc3ccc4[nH]c(C)cc4c3F)ncnc2cc1OCCCN1CCCC1 [UM0141418:01, Cediranib (AZD217)]
Inh (PKA) [1]: 13.87%

COC(=O)C[C@H](NC(=O)[C@H](C)NC(=O)[C@@H](NC(=O)OCc1ccccc1)C(C)C)C(=O)CF [UM0141421:01, Z-VAD-FMK] (Cbz-Val-Ala-Asp(OMe)-CH2F)
Inh (PKA) [1]: 1.417%

COC(=O)CC(NC(=O)OC(C)(C)C)C(=O)CF [UM0141423:01, Boc-D-FMK]
Inh (PKA) [1]: 1.796%

Nc1nc(OCc2cc(Br)cs2)c2[nH]cnc2n1 [UM0141425:01, Lomeguatrib]
Inh (PKA) [1]: 7.16%

O=C(O)C(Cc1c[nH]c2ccccc12)N1C(=O)c2ccccc2C1=O (stereo not drawn) [UM0141426:01, RG 108]
Inh (PKA) [1]: 1.344%

COC(=O)CC[C@H](NC(=O)[C@H](CC(=O)OC)NC(=O)OCc1ccccc1)C(=O)N[C@H](C(=O)N[C@@H](CC(=O)OC)C(=O)CF)C(C)C [UM0141427:01, Z-DEVD-FMK]
Inh (PKA) [1]: 1.254%

COC(=O)C[C@H](NC(=O)[C@H](CCSC)NC(=O)[C@H](CCC(N)=O)NC(=O)[C@H](CC(=O)OC)NC(=O)OCc1ccccc1)C(=O)CF [UM0141428:01, Z-DQMD-FMK] (Cbz-D(OMe)QMD(OMe)-CH2F)
Inh (PKA) [1]: 1.642%

COC(=O)C[C@H](NC(=O)[C@H](C)NC(=O)[C@@H](NC(=O)[C@H](CC(=O)OC)NC(=O)[C@@H](NC(=O)OCc1ccccc1)C(C)C)C(C)C)C(=O)CF [UM0141429:01, Z-VDVAD-FMK] (Cbz-VD(OMe)VAD(OMe)-CH2F)
Inh (PKA) [1]: -0.4508%

CC[C@H](C)[C@H](NC(=O)[C@H](CCC(=O)OC)NC(=O)[C@@H](NC(=O)OCc1ccccc1)C(C)C)C(=O)N[C@@H](CC(=O)OC)C(=O)CF [UM0141430:01, Z-VEID-FMK] (Cbz-VE(OMe)ID(OMe)-CH2F)
Inh (PKA) [1]: -0.4163%

COC[C@@H]1CCCN1S(=O)(=O)c1ccc2c(c1)C(=O)C(=O)N2 [UM0141431:01, Caspase-3/7 Inhibitor I]
Inh (PKA) [1]: 2.243%

CCCNC(=O)[C@H]1O[C@@H]1C(=O)N[C@H](C(=O)N1CCC[C@H]1C(=O)O)[C@@H](C)CC [UM0141432:01, CA 074]
Inh (PKA) [1]: -0.2737%

CC(C)C[C@H](NC(=O)[C@H](CCc1ccccc1)NC(=O)CN1CCOCC1)C(=O)N[C@@H](Cc1ccccc1)C(=O)N[C@@H](CC(C)C)C(=O)[C@@]1(C)CO1 [UM0141433:01, Carfilzomib (PR-171)]
Inh (PKA) [1]: 0.3082%

COC[C@H](NC(=O)c1cnc(C)s1)C(=O)N[C@@H](COC)C(=O)N[C@@H](Cc1ccccc1)C(=O)[C@@]1(C)CO1 [UM0141434:01, Oprozomib (ONX-0912)]
Inh (PKA) [1]: -0.3511%

Cn1cnc2c(F)c(Nc3ccc(Br)cc3F)c(C(=O)NOCCO)cc21 [UM0141435:01, MEK162 (ARRY-162, ARRY-438162)]
Inh (PKA) [1]: 13.83%

CCN(CC)CCCC(C)Nc1nc(C)cc(Nc2ccc3nc(C)cc(N)c3c2)n1 (stereo not drawn) [UM0141436:01, NSC 23766]
Inh (PKA) [1]: 2.521%

COc1cc([C@@H]2c3cc4c(cc3[C@@H](O[C@@H]3O[C@@H]5CO[C@@H](C)O[C@H]5[C@H](O)[C@H]3O)[C@H]3COC(=O)[C@H]23)OCO4)cc(OC)c1O [UM0141437:01, Etoposide]
Inh (PKA) [1]: 1.839%

CC(C)(C)c1cnc(CSc2cnc(NC(=O)C3CCNCC3)s2)o1 [UM0141438:01, SNS-032 (BMS-387032)]
Inh (PKA) [1]: 4.184%

Cn1c(CCCC(=O)O)nc2cc(N(CCCl)CCCl)ccc21 [UM0141439:01, Bendamustine HCl]
Inh (PKA) [1]: -0.1879%

C=CC(=O)Nc1ccc2ncnc(Nc3cccc(Br)c3)c2c1 [UM0141440:01, PD168393]
Inh (PKA) [1]: 22.44%

Cc1ccccc1-n1c(Cn2cnc3c(N)ncnc32)nc2cccc(C)c2c1=O [UM0141441:01, IC-87114]
Inh (PKA) [1]: 5.733%

Cc1ccc([N+](=O)[O-])cc1S(=O)(=O)N(C)/N=C/c1cnc2ccc(Br)cn12 [UM0141442:01, PIK-75]
Inh (PKA) [1]: 46.51%

CN1CCN(CCOc2cc(OC3CCOCC3)c3c(Nc4c(Cl)ccc5c4OCO5)ncnc3c2)CC1 [UM0141443:01, Saracatinib (AZD0530)]
Inh (PKA) [1]: 2.374%

COc1cc(Nc2c(C#N)cnc3cc(OCCCN4CCN(C)CC4)c(OC)cc23)c(Cl)cc1Cl [UM0141444:01, Bosutinib (SKI-606)]
Inh (PKA) [1]: 20.21%

CC(=O)Nc1ccc(OC[C@](C)(O)C(=O)Nc2ccc([N+](=O)[O-])c(C(F)(F)F)c2)cc1 [UM0141445:01, Andarine]
Inh (PKA): 7.113%

CN1CCN(c2ccc3nc(-c4c(N)c5c(F)cccc5[nH]c4=O)[nH]c3c2)CC1 [UM0141446:01, Dovitinib (TKI-258, CHIR-258)]
Inh (PKA) (counter-screen for NanoLuc interference, Inh (PKA)): 5.935%

O=C(NNc1nc2cc(F)ccc2n2cccc12)c1cnccn1 [UM0141448:01, SC 144]
Inh (PKA) [1]: 4.683%

O=[N+]([O-])c1ccc2c(c1)S(=O)(=O)C=C2 [UM0141450:01, Stattic]
Inh (PKA) [1]: 9.361%

Cc1cc(N2CCOCC2)cc2[nH]c(-c3c(NC[C@@H](O)c4cccc(Cl)c4)cc[nH]c3=O)nc12 [UM0141451:01, BMS-536924]
Inh (PKA) [1]: 41.39%

O=S(=O)(c1ccccc1)N(CC(F)(F)F)c1ccc(C(O)(C(F)(F)F)C(F)(F)F)cc1 [UM0141452:01, T0901317]
Inh (PKA) [1]: 30.09%

Nc1ncnc2c1c(-c1cccc(OCc3ccccc3)c1)cn2[C@H]1C[C@@H](CN2CCC2)C1 [UM0141453:01, NVP-AEW541]
Inh (PKA) [1]: 10.76%

Cc1[nH]c(/C=C2\C(=O)Nc3ccc(S(=O)(=O)Cc4c(Cl)cccc4Cl)cc32)c(C)c1C(=O)N1CCC[C@@H]1CN1CCCC1 [UM0141454:01, PHA-665752]
Inh (PKA) [1]: 72.78%

CNCc1cc(-c2ccccc2F)n(S(=O)(=O)c2cccnc2)c1 [UM0141455:01, TAK-438]
Inh (PKA) [1]: 1.837%

C[C@@H]1C[C@H]2[C@@H]3CCC4=CC(=O)C=C[C@]4(C)[C@@]3(F)[C@@H](O)C[C@]2(C)[C@@]1(O)C(=O)CO [UM0141456:01, Dexamethasone (DHAP)]
Inh (PKA) [1]: 0.4412%

COCC(=O)NC/C=C/c1ccc2ncnc(Nc3ccc(Oc4ccc(C)nc4)c(C)c3)c2c1 [UM0141457:01, CP-724714]
Inh (PKA) [1]: 30.01%

C[C@H]1O[C@H](O[C@H]2[C@H](O)[C@@H](O)[C@@H](O[C@H]3[C@H](O)[C@@H](O)C(O)O[C@@H]3CO)O[C@@H]2CO)[C@H](O)[C@@H](O)[C@@H]1N[C@H]1C=C(CO)[C@@H](O)[C@H](O)[C@H]1O (stereo partly drawn) [UM0141458:01, Acarbose]
Inh (PKA) [1]: 2.661%

NCCC(O)(P(=O)(O)O)P(=O)(O)O [UM0141459:01, Pamidronate Disodium]
Inh (PKA) [1]: 0.7087%

CC(=O)[C@]1(O)Cc2c(O)c3c(c(O)c2[C@@H](O[C@H]2C[C@H](N)[C@H](O)[C@H](C)O2)C1)C(=O)c1ccccc1C3=O [UM0141460:01, Idarubicin HCl]
Inh (PKA) [1]: 47.84%

CC(C)(F)C[C@H](N[C@@H](c1ccc(-c2ccc(S(C)(=O)=O)cc2)cc1)C(F)(F)F)C(=O)NC1(C#N)CC1 [UM0141461:01, Odanacatib (MK-0822)]
Inh (PKA) [1]: 3.507%

Nc1nc(=O)c2c([nH]1)NCC(CNc1ccc(C(=O)N[C@@H](CCC(=O)O)C(=O)O)cc1)N2C=O (stereo partly drawn) [UM0141462:01, Leucovorin Calcium]
Inh (PKA) [1]: 1.727%

CN[C@H]1C[C@@H](N)[C@H](O)[C@@H](O[C@@H]2O[C@H](CO)[C@H](O)[C@@H]3OC4(O[C@H]23)O[C@H]([C@@H](N)CO)[C@H](O)[C@H](O)[C@H]4O)[C@@H]1O (stereo partly drawn) [UM0141464:01, Hygromycin B]
Inh (PKA) [1]: 0.3498%

NC[C@H]1O[C@H](O[C@H]2[C@H](O)[C@@H](O[C@H]3O[C@H](CO)[C@@H](O)[C@H](N)[C@H]3O)[C@H](N)C[C@@H]2N)[C@H](O)[C@@H](O)[C@@H]1O [UM0141465:01, Kanamycin Sulfate]
Inh (PKA) [1]: 1.064%

Cc1ccc(Sc2ccccc2N2CCNCC2)c(C)c1 [UM0141466:01, Vortioxetine (Lu AA21004) HBr]
Inh (PKA) [1]: 18.25%

CC(=O)N[C@@H](CC(C)C)C(=O)N[C@@H](CC(C)C)C(=O)N[C@H](C=O)CCCNC(=N)N [UM0141467:01, Leupeptin, Microbial]
Inh (PKA) [1]: 0.9653%

CC(C)C[C@H](NC(=O)[C@@H](O)[C@H](N)Cc1ccccc1)C(=O)O [UM0141468:01, Bestatin]
Inh (PKA) [1]: 1.556%

CNC(=O)[C@H](Cc1ccccc1)NC(=O)[C@H](CC(C)C)[C@H](CSc1cccs1)C(=O)NO [UM0141470:01, Batimastat (BB-94)]
Inh (PKA) [1]: 1.977%

CC(C)C[C@@H](C=O)NC(=O)[C@H](CC(C)C)NC(=O)[C@H](CC(C)C)NC(=O)OCc1ccccc1 [UM0141471:01, MG-132] (Cbz-Leu-Leu-Leu-aldehyde)
Inh (PKA) [1]: 6.639%

Cc1cc2c(F)c(Oc3ncnn4cc(OC[C@@H](C)O)c(C)c34)ccc2[nH]1 [UM0141474:01, Brivanib (BMS-540215)]
Inh (PKA) [1]: 42.48%

CSCCC(C=O)NC(=O)C(CC(C)C)NC(=O)[C@H](CC(C)C)NC(C)=O (stereo partly drawn) [UM0141476:01, Calpain Inhibitor II, ALLM] (Ac-Leu-[ξL]-[ξM]-aldehyde)
Inh (PKA) [1]: 1.385%

CC[C@H](C)[C@H](NC(=O)[C@H]([C@@H](C)CC)N(C)C(C)=O)C(=O)N[C@H](C(=O)N[C@@H](CC(C)C)C(=O)[C@@]1(C)CO1)[C@@H](C)O [UM0141477:01, Epoxomicin]
Inh (PKA) [1]: 1.438%

CCC[C@@H](C=O)NC(=O)[C@H](CC(C)C)NC(=O)[C@H](CC(C)C)NC(=O)OCc1ccccc1 [UM0141478:01, MG-115] (Cbz-Leu-Leu-[Nva]-aldehyde)
Inh (PKA) [1]: 4.161%

Cc1cc2c(F)c(Oc3ncnn4cc(OC[C@@H](C)OC(=O)[C@H](C)N)c(C)c34)ccc2[nH]1 [UM0141479:01, Brivanib Alaninate (BMS-582664)]
Inh (PKA) [1]: 33.56%
